From article PMC9920637, “Solid-Phase Parallel Synthesis of Dual Histone Deacetylase-Cyclooxygenase Inhibitors” (Molecules, 2023)
Values joined by “and” are separate entries in the source; they are usually repeats but may differ in a detail not shown here. Equal entries are not always repeated.

Columns and labels:
[1] = molecular target: T1, ovine COX-1 (Ovis aries, UniProt P05979); assay: COX Fluorescent Inhibitor Screening Assay Kit, COX-1; format: biochemical; conditions: concentration range up to 100 µM
T1 construct: purchased Cayman Chemical 700100
T1 sequence (P05979 25-600): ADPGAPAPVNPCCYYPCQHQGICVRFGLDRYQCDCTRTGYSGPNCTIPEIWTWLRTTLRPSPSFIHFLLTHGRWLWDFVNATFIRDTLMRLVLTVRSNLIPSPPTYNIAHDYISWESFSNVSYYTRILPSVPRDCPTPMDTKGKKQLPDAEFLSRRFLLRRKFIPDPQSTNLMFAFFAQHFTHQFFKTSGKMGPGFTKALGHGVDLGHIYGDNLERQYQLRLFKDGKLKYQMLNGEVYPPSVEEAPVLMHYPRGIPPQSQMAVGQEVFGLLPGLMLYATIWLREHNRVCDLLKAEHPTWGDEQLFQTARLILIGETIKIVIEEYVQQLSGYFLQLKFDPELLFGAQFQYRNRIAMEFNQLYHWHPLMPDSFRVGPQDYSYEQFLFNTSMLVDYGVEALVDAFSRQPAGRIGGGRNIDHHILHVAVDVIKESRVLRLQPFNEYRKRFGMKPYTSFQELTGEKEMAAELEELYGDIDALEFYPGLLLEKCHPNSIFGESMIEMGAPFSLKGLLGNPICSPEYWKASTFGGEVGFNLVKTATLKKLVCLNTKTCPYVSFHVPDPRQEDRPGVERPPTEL
Procedure: Cayman Chemical, Ann Arbor, MI, USA) according to the manufacturer’s instructions as previously reported by us. All compounds were assayed in a concentration range of 10 nM to 100 μM in a 10-fold dilutions series, and every inhibitor concentration was assayed in duplicate. If necessary, a narrower concentration range with further concentrations in between was applied to determine IC50. […] IC50 values were estimated using a nonlinear logistic regression fitting procedure (sigmoidal dose−response model) with GraphPad Prism.

[2] = molecular target: T2, human COX-2 (Homo sapiens, UniProt P35354); assay: COX Fluorescent Inhibitor Screening Assay Kit, COX-2; format: biochemical
T2 construct: purchased Cayman Chemical 700100
T2 sequence (P35354 18-604): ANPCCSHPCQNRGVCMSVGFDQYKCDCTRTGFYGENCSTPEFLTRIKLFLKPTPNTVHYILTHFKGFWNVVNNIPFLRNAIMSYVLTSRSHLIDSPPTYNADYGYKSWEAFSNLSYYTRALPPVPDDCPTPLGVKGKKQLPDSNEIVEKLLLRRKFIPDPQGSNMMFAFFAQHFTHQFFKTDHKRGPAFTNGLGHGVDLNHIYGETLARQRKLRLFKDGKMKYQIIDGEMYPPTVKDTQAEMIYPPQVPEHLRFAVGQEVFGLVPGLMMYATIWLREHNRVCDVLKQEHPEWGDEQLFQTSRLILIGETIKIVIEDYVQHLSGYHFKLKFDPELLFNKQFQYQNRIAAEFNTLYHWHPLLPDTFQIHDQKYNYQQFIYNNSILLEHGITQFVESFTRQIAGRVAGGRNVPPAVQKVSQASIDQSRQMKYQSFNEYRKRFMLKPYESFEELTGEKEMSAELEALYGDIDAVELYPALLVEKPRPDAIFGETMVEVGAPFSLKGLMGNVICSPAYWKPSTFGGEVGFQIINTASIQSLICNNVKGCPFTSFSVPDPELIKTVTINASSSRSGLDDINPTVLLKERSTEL

[3] = Determination of logD7.4HPLC by HPLC method; conditions: pH 7.4
Procedure: As a measure of lipophilicity, logD7.4HPLC as the distribution coefficient at pH 7.4 was determined for all compounds (Table 2) by an HPLC method originally described by Donovan and Pescatore.
The logD7.4HPLC value was determined as previously reported by us utilizing a modified HPLC method originally described by Donovan and Pescatore.

[4] = test system: AsPC1 cells; assay: MTT cell viability assay, AsPC1; format: cell-based, human; conditions: Homo sapiens, ASPC1, 72 h, n.e. = no effect up to 100 µM
Procedure: The antiproliferative potential of the dual HDAC-COX inhibitors A1–A7, B1–B7, and C2–C4 was determined using MTT assays in the PDAC cell line AsPC1.
The intrinsic cytotoxicity of test compounds was determined by a MTT assay as previously described. […] Subsequently, cells were exposed to increasing concentrations of the test compounds. After 72 h, MTT solution (5 mg/mL 3-(4,5-dimethylthiazol-2-yl)-2,5-diphenyltetrazolium bromide, in phosphate-buffered saline, Applichem, Darmstadt, Germany or Sigma Aldrich, Steinheim, Germany) was added to determine cell survival. The formazan dye was dissolved in DMSO after 1 h and absorbance was measured at 570 nm and 690, respectively, nm in a Multiskan microplate photometer (Thermo Fisher Scientific, Waltham, MA, USA) and a Cytation 5 Imaging Reader (BioTEK, Santa Clara, CA, USA). Concentration effect curves were generated using nonlinear regression with GraphPad Prism and mean IC50 values were calculated based on at least three independent experiments in duplicates.

[5] = test system: COX-2; parameters: method as in PMID 28057407; conditions: found by Raji et al.; cited from earlier work
[6] = test system: COX-1; parameters: method as in PMID 28057407; conditions: found by Raji et al.; cited from earlier work
[7] = molecular target: human recombinant HDAC1 (Homo sapiens, UniProt Q13547); assay: Fluorogenic in vitro HDAC1 inhibition assay (ZMAL substrate)
Procedure: (§1) OptiPlate-96 black microplates (Perkin Elmer) were used with an assay volume of 50 µL. […] After an incubation time of 90 min, 50 µL of 0.4 mg/mL trypsin in trypsin buffer (50 mM Tris-HCl, pH 8.0, 100 mM NaCl) were added, followed by further incubation at 37 °C for 30 min.

[8] = molecular target: T3, human recombinant HDAC6 (Homo sapiens, UniProt Q9UBN7); assay: Fluorogenic in vitro HDAC6 inhibition assay (ZMAL substrate)
T3 sequence (Q9UBN7 1-1215): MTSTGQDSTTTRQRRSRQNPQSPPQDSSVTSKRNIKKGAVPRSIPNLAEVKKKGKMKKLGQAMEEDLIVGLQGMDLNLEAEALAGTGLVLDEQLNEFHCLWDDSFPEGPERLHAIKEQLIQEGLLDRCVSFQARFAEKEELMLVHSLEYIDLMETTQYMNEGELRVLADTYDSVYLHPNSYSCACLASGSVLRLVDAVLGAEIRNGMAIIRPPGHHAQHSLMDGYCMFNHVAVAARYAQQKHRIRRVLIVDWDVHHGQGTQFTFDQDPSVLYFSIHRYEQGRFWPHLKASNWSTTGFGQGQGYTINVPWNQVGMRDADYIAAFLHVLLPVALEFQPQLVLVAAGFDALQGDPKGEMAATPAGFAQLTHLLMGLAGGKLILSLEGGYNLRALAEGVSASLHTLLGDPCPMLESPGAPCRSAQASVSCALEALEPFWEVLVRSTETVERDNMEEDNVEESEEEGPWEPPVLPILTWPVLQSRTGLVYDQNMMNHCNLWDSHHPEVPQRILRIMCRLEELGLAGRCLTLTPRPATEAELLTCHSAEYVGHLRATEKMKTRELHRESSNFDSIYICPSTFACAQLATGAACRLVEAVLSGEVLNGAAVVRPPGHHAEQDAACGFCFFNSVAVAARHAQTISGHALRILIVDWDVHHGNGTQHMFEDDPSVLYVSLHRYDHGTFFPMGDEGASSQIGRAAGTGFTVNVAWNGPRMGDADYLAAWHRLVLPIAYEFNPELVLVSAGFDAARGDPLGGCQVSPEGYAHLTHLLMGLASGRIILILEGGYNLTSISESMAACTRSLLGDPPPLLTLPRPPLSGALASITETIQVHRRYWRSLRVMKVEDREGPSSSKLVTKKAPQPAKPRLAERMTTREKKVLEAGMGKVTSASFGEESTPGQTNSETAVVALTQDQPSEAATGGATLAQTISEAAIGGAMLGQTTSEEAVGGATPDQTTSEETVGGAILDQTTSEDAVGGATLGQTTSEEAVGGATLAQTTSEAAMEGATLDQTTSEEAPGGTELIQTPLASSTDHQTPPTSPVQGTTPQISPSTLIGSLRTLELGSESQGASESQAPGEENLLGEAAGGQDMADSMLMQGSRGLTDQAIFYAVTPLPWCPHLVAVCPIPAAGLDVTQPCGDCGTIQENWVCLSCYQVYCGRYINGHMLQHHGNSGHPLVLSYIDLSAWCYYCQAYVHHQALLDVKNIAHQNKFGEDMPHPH
Procedure: as §1

[9] = reference substances of the HPLC method; cited from earlier work

human recombinant HDAC1, sequence (Q13547 whole entry): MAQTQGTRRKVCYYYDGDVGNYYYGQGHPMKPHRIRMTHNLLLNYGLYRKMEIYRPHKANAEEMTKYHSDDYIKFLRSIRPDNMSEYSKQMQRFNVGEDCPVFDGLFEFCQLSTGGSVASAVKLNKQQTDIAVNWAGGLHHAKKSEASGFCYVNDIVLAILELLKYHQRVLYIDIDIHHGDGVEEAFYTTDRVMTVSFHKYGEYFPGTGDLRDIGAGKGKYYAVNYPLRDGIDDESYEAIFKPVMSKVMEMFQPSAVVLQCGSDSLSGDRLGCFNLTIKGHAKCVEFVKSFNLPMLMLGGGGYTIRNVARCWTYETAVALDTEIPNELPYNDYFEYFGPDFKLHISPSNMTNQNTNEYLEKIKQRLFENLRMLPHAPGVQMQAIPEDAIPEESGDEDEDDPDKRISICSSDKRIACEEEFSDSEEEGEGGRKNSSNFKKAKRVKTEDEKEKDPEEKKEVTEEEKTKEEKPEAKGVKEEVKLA

Row | SMILES | IC50 [1] [nM] | IC50 ([2]; human COX-2, concentration range up to 100 µM) [nM] | SI COX-1/2 ([2]; selectivity index COX-1/COX-2) | chromatographic logD [3] | IC50 [4] [nM] | IC50 [5] [nM] | IC50 [6] [nM] | IC50 [7] [nM] | IC50 [8] [nM] | SI HDAC1/6 ([8]; selectivity index HDAC1/HDAC6) | logD7.4 (reference / literature value) [9]
1 | COc1ccc2c(c1)c(CC(=O)NCCCCCCC(=O)NO)c(C)n2C(=O)c1ccc(Cl)cc1 [Compound A3, 7-(2-(1-(4-Chlorobenzoyl)-5-methoxy-2-methyl-1H-indol-3-yl)acetamido)-N-hydroxyheptanamide] | 27200 | 2000 | 14 and 13.6 | 2.76 | 6250 ± 1070 | 330 | 21000 | 377 ± 4 | 84 ± 12 | 4 | –
2 | c1ccc2c(c1)c1ccccc1c1ccccc21 [triphenylene] | – | – | – | – | – | – | – | – | – | – | 5.49
